Read-outs that look alike come from different tables or passages of the source. Each block holds one compound with its values, some of them ahead of it.
Legend:
[1] = copper-chelating activity assay (pyrocatechol violet); details: 5 mM
Experimental: The copper-chelating activity of compound 4 was assessed using previously reported protocol[44] with minor modifications. […] After that, the absorbance of each well was measured at 620 nm. The copper-chelating activity was calculated using the formula: Copper-chelating activity (%) = [(Acon – Asam)/Acon] × 100, where Acon and Asam are the absorbance of the control and test sample, respectively.

tyrosinase = details: cited from earlier work
mushroom tyrosinase = mushroom tyrosinase activity assay (L-DOPA substrate); format: biochemical; details: mean ± SEM
Experimental: The procedure for the mushroom tyrosinase activity assay was conducted in accordance with the methodology described in a previous report. […] In a 96-well plate, 40 μL of mushroom tyrosinase (5 U/μL, Sigma Aldrich, St. Louis, MO, USA) was added to each well, followed by 50 μL of the test compound at various concentrations. After that, 10 μL of 50 mM L-DOPA (purity ≥98%, Sigma-Aldrich, St. Louis, MO, USA) were added and incubated in darkness at 37 °C for 15 min. Finally, the absorbance was measured at 450 nm. The experiment was conducted in triplicate. IC50 values were determined using GraphPad Prism 10.2.2 software.

cytotoxicity MTT assay = format: cell-based, murine; details: mouse, B16F10 melanoma cells, read-out: cell viability
Experimental: Cell viability was determined using the MTT assay (3-(4,5-dimethylthiazol-2-yl)-2,5-diphenyltetrazolium bromide). B16F10 (murine melanoma cell line) was purchased from American Type Culture Collection (ATCC, Manassas, VA, USA). B16F10 cells were seeded into 96-well plates at a density of 1500 cells per well. After overnight incubation, the cells were treated with different concentrations of the test compound for 48 h. Following this, MTT reagent was added to each well and incubated for 3 h. The culture medium was then removed, and 100 μL of DMSO was used to dissolve the formazan crystals. Absorbance was measured at 540 nm to evaluate cell viability.

[2] = test system: B16F10 murine melanoma cells; experiment: melanin assay in α-MSH-stimulated cells; format: cell-based
Experimental: Melanin production was assessed according to the methodology outlined in a previous study. B16F10 cells were cultured in 6-well plates at a density of 100,000 cells per well. After overnight incubation, the cells were treated with different concentrations of the test compound for 48 h. Note that 1 μM of α-melanocyte-stimulating hormone (α-MSH) (Sigma Aldrich, St. Louis, MO, USA) was used to induce melanin synthesis. Following treatment, the cells were washed twice with PBS, detached using trypsin/EDTA, and centrifuged at 3,000×g for 5 min. The resulting cell pellets, containing approximately 700,000 cells, were solubilised in 2 M NaOH and heated at 100 °C for 30 min. Melanin content was quantified by measuring absorbance at 405 nm.

[3] = cited from earlier work

Compound: O=C(O)CN(CCN(CC(=O)O)CC(=O)O)CC(=O)O [EDTA, ethylenediaminetetraacetic acid]
Copper-chelating activity [1]: 95%

Compound: N=C(N)NN=C1C=CC(=NNC(N)=S)C=C1 [ambazone]
IC50 (tyrosinase): 15 µM

Compound: C[C@@H]1[C@H](O)[C@@H](C)/C=C/C=C/C=C/C=C/C=C/C=C/C=C/[C@H](O[C@@H]2O[C@H](C)[C@@H](O)[C@H](N)[C@@H]2O)C[C@@H]2O[C@](O)(C[C@@H](O)C[C@@H](O)[C@H](O)CC[C@@H](O)C[C@@H](O)CC(=O)O[C@H]1C)C[C@H](O)[C@H]2C(=O)O [amphotericin B]
IC50 (tyrosinase): 263 ± 11.8 µM

IC50 (mushroom tyrosinase): 61.6 ± 7.82 µM
Compound: S=C(NCc1ccc(CNC(=S)Nc2ccc(Cl)cc2)cc1)Nc1ccc(Cl)cc1 [Compound 4]
Copper-chelating activity [1]: 64% | viability at 48 h, 1 µM (cytotoxicity MTT assay; 1 μM): ~90% | viability at 48 h, 3 µM (cytotoxicity MTT assay; 3 μM): ~90% | viability at 48 h, 10 µM (cytotoxicity MTT assay; 10 μM): ~75% | viability at 48 h, 30 µM (cytotoxicity MTT assay; 30 μM): ~50% | viability at 48 h, 100 µM (cytotoxicity MTT assay; 100 μM): < 40% | melanin production ([2]; 10 and 30 μM, 48 h, α-MSH (1 μM)-treated B16F10, vs α-MSH group): significantly inhibited melanin production | anti-melanogenic activity compared to KA ([2]; α-MSH-stimulated B16F10, approximately): 30–100 times

Compound: CC1(C)C=Cc2c(O)ccc(C3=Cc4ccc(O)cc4OC3)c2O1 [glabrene]
IC50 (tyrosinase): 7600 µM

Compound: CC(=O)Nc1ccc(/C=N/NC(N)=S)cc1 [thioacetazone]
IC50 (tyrosinase): 14 µM

Compound: S=C1NCCCc2occc21 [Compound T4FAT, 5,6,7,8-tetrahydro-4H-furo[3,2-c]azepine-4-thione]
copper ions chelated ([3]; 200 mM ref 63): more than 80%

Compound: O=c1cc(CO)occ1O [KA, kojic acid]
Copper-chelating activity [1]: 75% | melanin content ([2]; 1000 μM, 48 h, α-MSH-stimulated B16F10, vs α-MSH group): reduced melanin content significantly

Compound: Sc1nc2ccccc2s1 [Compound 2-TBT, 2-thiobenzothiazole]
Copper-chelating activity [3]: 48% to 69
